Experiments:
Assay type in all cases: in vivo
[1] = system: Surinam grass (Brachiaria decumbens); assay: Test B postemergence; details: 13 to 15 days
Procedure, shortened: (§1)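 Greenhouse test: chemicals are formulated in a surfactant-containing non-phytotoxic solvent and applied either preemergence to planted seeds or postemergence to plants 2 to 18 cm tall. Response is rated visually versus controls after 13 to 15 days, 0 meaning no effect and 100 complete control.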

[2] = system: barnyardgrass (Echinochloa crus-galli); assay: Test B postemergence; details: 13 to 15 days
Procedure, shortened: as §1

[3] = system: blackgrass (Alopecurus myosuroides); assay: Test B postemergence; details: 13 to 15 days
Procedure, shortened: as §1

[4] = system: cocklebur (Xanthium strumarium); assay: Test B postemergence; details: 13 to 15 days
Procedure, shortened: as §1

[5] = system: corn (Zea mays); assay: Test B postemergence; details: 13 to 15 days
Procedure, shortened: as §1

[6] = system: crabgrass (Digitaria sanguinalis); assay: Test B postemergence; details: 13 to 15 days
Procedure, shortened: as §1

[7] = system: giant foxtail (Setaria faberii); assay: Test B postemergence; details: 13 to 15 days
Procedure, shortened: as §1

[8] = system: lambsquarters (Chenopodium album); assay: Test B postemergence; details: 13 to 15 days
Procedure, shortened: as §1

[9] = system: morning glory (Ipomoea hederacea); assay: Test B postemergence; details: 13 to 15 days
Procedure, shortened: as §1

[10] = system: pigweed (Amaranthus retroflexus); assay: Test B postemergence; details: 13 to 15 days
Procedure, shortened: as §1

[11] = system: velvetleaf (Abutilon theophrasti); assay: Test B postemergence; details: 13 to 15 days
Procedure, shortened: as §1

[12] = system: wheat (Triticum aestivum); assay: Test B postemergence; details: 13 to 15 days
Procedure, shortened: as §1

[13] = system: wild oat (Avena fatua); assay: Test B postemergence; details: 13 to 15 days
Procedure, shortened: as §1

[14] = system: Surinam grass (Brachiaria decumbens); assay: Test B preemergence; details: scale 0 to 100, 0 no effect, 100 complete control
Procedure, shortened: as §1

[15] = system: barnyardgrass (Echinochloa crus-galli); assay: Test B preemergence; details: scale 0 to 100, 0 no effect, 100 complete control
Procedure, shortened: as §1

[16] = system: cocklebur (Xanthium strumarium); assay: Test B preemergence; details: scale 0 to 100, 0 no effect, 100 complete control
Procedure, shortened: as §1

[17] = system: corn (Zea mays); assay: Test B preemergence; details: scale 0 to 100, 0 no effect, 100 complete control
Procedure, shortened: as §1

[18] = system: crabgrass (Digitaria sanguinalis); assay: Test B preemergence; details: scale 0 to 100, 0 no effect, 100 complete control
Procedure, shortened: as §1

[19] = system: giant foxtail (Setaria faberii); assay: Test B preemergence; details: scale 0 to 100, 0 no effect, 100 complete control
Procedure, shortened: as §1

[20] = system: lambsquarters (Chenopodium album); assay: Test B preemergence; details: scale 0 to 100, 0 no effect, 100 complete control
Procedure, shortened: as §1

[21] = system: morning glory (Ipomoea hederacea); assay: Test B preemergence; details: scale 0 to 100, 0 no effect, 100 complete control
Procedure, shortened: as §1

[22] = system: pigweed (Amaranthus retroflexus); assay: Test B preemergence; details: scale 0 to 100, 0 no effect, 100 complete control
Procedure, shortened: as §1

[23] = system: velvetleaf (Abutilon theophrasti); assay: Test B preemergence; details: scale 0 to 100, 0 no effect, 100 complete control
Procedure, shortened: as §1

[24] = system: smallflower flatsedge (Cyperus difformis); assay: Test C flooded paddy test; details: for Flatsedge plant response rating: Flooded Paddy, scale 0 to 100, 0 no effect, 100 complete control; for Plant response rating, Flatsedge: flooded paddy test, scale 0 to 100 (0 no effect, 100 complete control)
Procedure, shortened: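 Each species was cultivated to 2 leaves in flooded paddy pots, then treated. After a greenhouse period of 12–14 days, the plants were scored visually relative to controls from 0 (no effect) to 100 (complete control).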

[25] = system: rice (Oryza saliva); assay: Test B preemergence; details: scale 0 to 100, 0 no effect, 100 complete control
Procedure, shortened: as §1

[26] = Rate 125 g/ha, scale 0 (no effect) to 100 (complete control)
[27] = Rate 500 g/ha, scale 0 to 100, 0 is no effect, 100 is complete control

In the case of CC(C)(C)c1ccn(C2SCN(c3cccc(C(F)(F)F)c3)C2=O)n1 (stereo not drawn) [Compound 1], the “Plant response rating, Surinam grass” value [1, 26] was 0, the “Plant response rating, Surinam grass” value [1, 27] was 0 and the “Plant response rating, Barnyardgrass” value [2, 26] was 0. The “Plant response rating, Barnyardgrass” value [2, 27] was 50, the “Plant response rating, Blackgrass” value [3, 26] was 0 and the “Plant response rating, Blackgrass” value [3, 27] was 0. For the same molecule, the “Plant response rating, Cocklebur” value [4, 26] was 60, the “Plant response rating, Cocklebur” value [4, 27] was 80 and the “Plant response rating, Corn” value [5, 26] was 0. The “Plant response rating, Corn” value [5, 27] was 60, the “Plant response rating, Crabgrass” value [6, 26] was 0 and the “Plant response rating, Crabgrass” value [6, 27] was 40. For the same molecule, the “Plant response rating, Foxtail, Giant” value [7, 26] was 30, the “Plant response rating, Foxtail, Giant” value [7, 27] was 60 and the “Plant response rating, Lambsquarters” value [8, 26] was 90. The “Plant response rating, Lambsquarters” value [8, 27] was 100, the “Plant response rating, Morningglory” value [9, 26] was 50 and the “Plant response rating, Morningglory” value [9, 27] was 100. For the same molecule, the “Plant response rating, Pigweed” value [10, 26] was 90, the “Plant response rating, Pigweed” value [10, 27] was 100 and the “Plant response rating, Velvetleaf” value [11, 26] was 50. The “Plant response rating, Velvetleaf” value [11, 27] was 60, the “Plant response rating, Wheat” value [12, 26] was 0 and the “Plant response rating, Wheat” value [12, 27] was 30. For the same molecule, the “Plant response rating, Wild Oat” value [13, 26] was 0, the “Plant response rating, Wild Oat” value [13, 27] was 0 and the “Plant response rating, Surinam grass” value ([14]; Preemergence, Rate 500 g/ha) was 0. The “Plant response rating, Surinam grass” value ([14]; preemergence, Rate 125 g/ha) was 0, the “Plant response rating, Barnyardgrass” value ([15]; Preemergence, Rate 500 g/ha) was 100 and the “Plant response rating, Barnyardgrass” value ([15]; preemergence, Rate 125 g/ha) was 50. For the same molecule, the “Plant response rating, Cocklebur” value ([16]; Preemergence, Rate 500 g/ha) was 40, the “Plant response rating, Cocklebur” value ([16]; preemergence, Rate 125 g/ha) was 0 and the “Plant response rating, Corn” value ([17]; Preemergence, Rate 500 g/ha) was 20. The “Plant response rating, Corn” value ([17]; preemergence, Rate 125 g/ha) was 0, the “Plant response rating, Crabgrass” value ([18]; Preemergence, Rate 500 g/ha) was 100 and the “Plant response rating, Crabgrass” value ([18]; preemergence, Rate 125 g/ha) was 0. The “Plant response rating, Foxtail, Giant” value ([19]; Preemergence, Rate 500 g/ha) was 100, the “Plant response rating, Foxtail, Giant” value ([19]; preemergence, Rate 125 g/ha) was 50 and the “Plant response rating, Lambsquarters” value ([20]; Preemergence, Rate 500 g/ha) was 100. The “Plant response rating, Lambsquarters” value ([20]; preemergence, Rate 125 g/ha) was 100, the “Plant response rating, Morningglory” value ([21]; Preemergence, Rate 500 g/ha) was 40 and the “Plant response rating, Morningglory” value ([21]; preemergence, Rate 125 g/ha) was 20. For the same molecule, the “Plant response rating, Pigweed” value ([22]; Preemergence, Rate 500 g/ha) was 100, the “Plant response rating, Pigweed” value ([22]; preemergence, Rate 125 g/ha) was 100 and the “Plant response rating, Velvetleaf” value ([23]; Preemergence, Rate 500 g/ha) was 30. The “Plant response rating, Velvetleaf” value ([23]; preemergence, Rate 125 g/ha) was 0, the “Flatsedge plant response rating” value ([24]; Rate 250 g/ha) was 100 and the “Flatsedge plant response rating” value ([24]; Rate 500 g/ha) was 100. For the same molecule, the “Plant response rating, Flatsedge” value ([24]; Rate 62 g/ha) was 90 and the “Plant response rating, Flatsedge” value ([24]; Rate 125 g/ha) was 100.

Cc1ccn(C2CCN(c3cccc(C(F)(F)F)c3)C2=O)n1 (stereo not drawn) [Compound 16] was tested, and the “Plant response rating, Surinam grass” value [1, 26] was 0, the “Plant response rating, Surinam grass” value [1, 27] was 0 and the “Plant response rating, Barnyardgrass” value [2, 26] was 0. For the same molecule, the “Plant response rating, Barnyardgrass” value [2, 27] was 0, the “Plant response rating, Blackgrass” value [3, 26] was 0 and the “Plant response rating, Blackgrass” value [3, 27] was 0. For the same molecule, the “Plant response rating, Cocklebur” value [4, 26] was 0, the “Plant response rating, Cocklebur” value [4, 27] was 0 and the “Plant response rating, Corn” value [5, 26] was 0. The “Plant response rating, Corn” value [5, 27] was 0, the “Plant response rating, Crabgrass” value [6, 26] was 0 and the “Plant response rating, Crabgrass” value [6, 27] was 60. The “Plant response rating, Foxtail, Giant” value [7, 26] was 0, the “Plant response rating, Foxtail, Giant” value [7, 27] was 30 and the “Plant response rating, Lambsquarters” value [8, 26] was 0. For the same molecule, the “Plant response rating, Lambsquarters” value [8, 27] was 0, the “Plant response rating, Morningglory” value [9, 26] was 0 and the “Plant response rating, Morningglory” value [9, 27] was 0. For the same molecule, the “Plant response rating, Velvetleaf” value [11, 26] was 0, the “Plant response rating, Velvetleaf” value [11, 27] was 0 and the “Plant response rating, Wheat” value [12, 26] was 0. The “Plant response rating, Wheat” value [12, 27] was 0, the “Plant response rating, Wild Oat” value [13, 26] was 0 and the “Plant response rating, Wild Oat” value [13, 27] was 50. For the same molecule, the “Plant response rating, Surinam grass” value ([14]; Preemergence, Rate 500 g/ha) was 0, the “Plant response rating, Surinam grass” value ([14]; preemergence, Rate 125 g/ha) was 0 and the “Plant response rating, Barnyardgrass” value ([15]; Preemergence, Rate 500 g/ha) was 0. The “Plant response rating, Barnyardgrass” value ([15]; preemergence, Rate 125 g/ha) was 0, the “Plant response rating, Cocklebur” value ([16]; Preemergence, Rate 500 g/ha) was 0 and the “Plant response rating, Cocklebur” value ([16]; preemergence, Rate 125 g/ha) was 0. The “Plant response rating, Corn” value ([17]; Preemergence, Rate 500 g/ha) was 0, the “Plant response rating, Corn” value ([17]; preemergence, Rate 125 g/ha) was 0 and the “Plant response rating, Crabgrass” value ([18]; Preemergence, Rate 500 g/ha) was 0. The “Plant response rating, Crabgrass” value ([18]; preemergence, Rate 125 g/ha) was 0, the “Plant response rating, Foxtail, Giant” value ([19]; Preemergence, Rate 500 g/ha) was 0 and the “Plant response rating, Foxtail, Giant” value ([19]; preemergence, Rate 125 g/ha) was 0. For the same molecule, the “Plant response rating, Lambsquarters” value ([20]; Preemergence, Rate 500 g/ha) was 0, the “Plant response rating, Lambsquarters” value ([20]; preemergence, Rate 125 g/ha) was 0 and the “Plant response rating, Morningglory” value ([21]; Preemergence, Rate 500 g/ha) was 0. The “Plant response rating, Morningglory” value ([21]; preemergence, Rate 125 g/ha) was 0, the “Plant response rating, Pigweed” value ([22]; Preemergence, Rate 500 g/ha) was 0 and the “Plant response rating, Pigweed” value ([22]; preemergence, Rate 125 g/ha) was 0. For the same molecule, the “Plant response rating, Rice” value ([25]; Preemergence, Rate 500 g/ha) was 0, the “Plant response rating, Rice” value ([25]; preemergence, Rate 125 g/ha) was 0 and the “Plant response rating, Velvetleaf” value ([23]; Preemergence, Rate 500 g/ha) was 20. For the same molecule, the “Plant response rating, Velvetleaf” value ([23]; preemergence, Rate 125 g/ha) was 0.
